Assay results as given in patent US20170037028A1 (BAYER PHARMA AKTIENGESELLSCHAFT, priority 2013, published 2017).

The molecules below were run against T1, GLUT1 (Homo sapiens, UniProt P11166) (assay: Indirect measurement of GLUT1 activity by quantification of intracellular ATP levels (glucose induced ATP increase)). Settings: DLD1 cells; 0.1 mM glucose, 1 μM Rotenone, 15 min; CellTiter-Glo ATP readout; IC50 values standardized to cytochalasin B IC50 values; read-out: IC50 regarding glucose induced ATP increase (GLUT1 inhibition).
T1 sequence (P11166 1-492): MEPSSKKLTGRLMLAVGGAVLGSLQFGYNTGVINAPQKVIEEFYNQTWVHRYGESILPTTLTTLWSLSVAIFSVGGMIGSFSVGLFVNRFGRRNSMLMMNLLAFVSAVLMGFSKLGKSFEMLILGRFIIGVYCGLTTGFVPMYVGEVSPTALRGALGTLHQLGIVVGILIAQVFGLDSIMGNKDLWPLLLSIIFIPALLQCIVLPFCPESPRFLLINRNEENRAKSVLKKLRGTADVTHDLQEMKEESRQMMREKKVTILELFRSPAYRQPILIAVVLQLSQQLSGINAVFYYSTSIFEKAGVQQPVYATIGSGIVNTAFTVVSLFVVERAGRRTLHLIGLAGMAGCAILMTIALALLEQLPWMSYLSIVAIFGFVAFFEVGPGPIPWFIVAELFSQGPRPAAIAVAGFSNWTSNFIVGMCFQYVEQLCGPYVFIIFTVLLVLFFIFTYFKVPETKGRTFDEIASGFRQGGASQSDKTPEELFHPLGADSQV
Assay type: cell-based
Design: endogenous in cells; host or cells: DLD1 or CHO-K1
In short: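 Intracellular ATP was measured by CellTiter-Glo luminescence as an indirect readout of transport: glucose-driven for GLUT1, fructose-driven for GLUT2. DLD1 or CHO-K1 cells were used alongside an oxidative phosphorylation inhibitor. Beforehand, cells were held overnight in glucose-free 1% FCS medium to deplete ATP.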

Compound | IC50
Cc1ccc2nc(C(N)=O)cc(C(=O)Nc3c(C(F)(F)F)nn(Cc4ccc(C#N)cc4)c3C)c2c1 [Example 366, N^4-[1-(4-cyanobenzyl)-5-methyl-3-(trifluoromethyl)-1H-pyrazol-4-yl]-6-methylquinoline-2,4-dicarboxamide] | 7 nM

Same assay, conditions: read-out: IC50 regarding glucose induced ATP increase (GLUT1 inhibition)

Compound | IC50
Cc1nn(Cc2ccc(C(=O)NCCO)cc2)c(C)c1NC(=O)c1cc(C(F)(F)F)nc2ccc(Br)cc12 [Example 139, 6-bromo-N-(1-{4-[(2-hydroxyethyl)carbamoyl]benzyl}-3,5-dimethyl-1H-pyrazol-4-yl)-2-(trifluoromethyl)quinoline-4-carboxamide] | 31.7 nM
CCc1nn(Cc2ccc(F)cc2)c(CC)c1NC(=O)c1cc(C(N)=O)nc2cc(F)c(Cl)cc12 [Example 1386] | 13.6 nM
Cc1nn(CC2CCCO2)c(C)c1NC(=O)c1cc(C(F)(F)F)nc2ccc(Br)cc12 (stereo not drawn) [Example 1175] | 205 nM
COc1cc(C(=O)Nc2c(C)nn(Cc3cccc(OC(F)(F)F)c3)c2C)c2ccccc2n1 [Example 115, N-{3,5-dimethyl-1-[3-(trifluoromethoxy)benzyl]-1H-pyrazol-4-yl}-2-methoxyquinoline-4-carboxamide] | 833 nM
Cc1nn(Cc2ccc(C(=O)Nc3nccs3)cc2)c(C)c1NC(=O)c1cc(C(F)(F)F)nc2ccc(Br)cc12 [Example 1047] | 11.2 nM
Cc1c(NC(=O)c2cc(S(=O)(=O)N(C)C)nc3ccccc23)c(C(F)(F)F)nn1Cc1ccc(C#N)cc1 [Example 1576] | 20.6 nM
Cc1nn(Cc2cccc(OC(F)(F)F)c2)c(C)c1NC(=O)c1cc(C(F)(F)F)nc2ccc(Br)cc12 [Example 113, 6-bromo-N-{3,5-dimethyl-1-[3-(trifluoromethoxy)benzyl]-1H-pyrazol-4-yl}-2-(trifluoromethyl)quinoline-4-carboxamide] | 813 nM
Cc1nn(Cc2cccc(C(F)(F)F)c2)c(C)c1NC(=O)c1cc(C(F)(F)F)nc2ccc(Br)cc12 [Example 1297] | 11100 nM
Cc1nn(Cc2ccc(F)cc2)c(C)c1NC(=O)c1cc(C(F)(F)F)nc2ccc(OC(F)(F)F)cc12 [Example 63, N-[1-(4-fluorobenzyl)-3,5-dimethyl-1H-pyrazol-4-yl]-6-(trifluoromethoxy)-2-(trifluoromethyl)quinoline-4-carboxamide] | 129 nM
Cc1nn(CC2CCOCC2)c(C)c1NC(=O)c1cc(C(F)(F)F)nc2c(Cl)cc(Cl)cc12 [Example 1143] | 114 nM
Cc1nn(Cc2ccc(C(F)(F)F)cc2)c(C)c1NC(=O)c1cc(C(F)(F)F)nc2ccc(Br)cc12 [Example 1302] | 11100 nM
COc1ccc(Cn2nc(C)c(NC(=O)c3cc(C(N)=O)nc4cc(F)c(Cl)cc34)c2C)cc1F [Example 237, 6-chloro-7-fluoro-N^4-[1-(3-fluoro-4-methoxybenzyl)-3,5-dimethyl-1H-pyrazol-4-yl]quinoline-2,4-dicarboxamide] | 0.4 nM
Cc1nn(Cc2ccc(F)c(F)c2)c(C)c1NC(=O)c1cc(C(C)C)nc2ccc(Br)cc12 [Example 129, 6-bromo-N-[1-(3,4-difluorobenzyl)-3,5-dimethyl-1H-pyrazol-4-yl]-2-(propan-2-yl)quinoline-4-carboxamide] | 4.1 nM
Cc1nn(Cc2ccc(CC(=O)NCCN(C)C)cc2)c(C)c1NC(=O)c1cc(C(F)(F)F)nc2ccc(Br)cc12 [Example 1254] | 1980 nM
Cc1nn(CC2CCN(S(=O)(=O)C3CC3)CC2)c(C)c1NC(=O)c1cc(C(N)=O)nc2ccccc12 [Example 1516] | 26.1 nM
Cc1nn(Cc2ccc(F)c(F)c2)c(C)c1NC(=O)c1cc(C2CC2)nc2ccc(Br)cc12 [Example 123, 6-bromo-2-cyclopropyl-N-[1-(3,4-difluorobenzyl)-3,5-dimethyl-1H-pyrazol-4-yl]quinoline-4-carboxamide] | 2 nM
Cc1cccc(Cn2nc(C)c(NC(=O)c3cc(C(F)(F)F)nc4ccc(Br)cc34)c2C)c1 [Example 52, 6-bromo-N-[3,5-dimethyl-1-(3-methylbenzyl)-1H-pyrazol-4-yl]-2-(trifluoromethyl)quinoline-4-carboxamide] | 52.1 nM
Cc1nn(Cc2ccc(CC(=O)O)cc2)c(C)c1NC(=O)c1cc(C(F)(F)F)nc2ccc(Br)cc12 [Example 151, (4-{[4-({[6-bromo-2-(trifluoromethyl)quinolin-4-yl]carbonyl}amino)-3,5-dimethyl-1H-pyrazol-1-yl]methyl}phenyl)acetic acid] | 1280 nM
Cc1nn(Cc2cccc(C#N)c2)c(C)c1NC(=O)c1cc(C(F)(F)F)nc2c(Cl)cc(Cl)cc12 [Example 91, 6,8-dichloro-N-[1-(3-cyanobenzyl)-3,5-dimethyl-1H-pyrazol-4-yl]-2-(trifluoromethyl)quinoline-4-carboxamide] | 292 nM
Cc1nn(Cc2ccc(C(=O)NCCN3CC4(CCS4(=O)=O)C3)cc2)c(C)c1NC(=O)c1cc(C(F)(F)F)nc2ccc(Br)cc12 [Example 1049] | 11.7 nM

Next, values leading:

IC50 | Compound
3.8 nM | Cc1nn(Cc2ccc(C(C)C)cc2)c(C)c1NC(=O)c1cc(C(N)=O)nc2cc(F)ccc12 [Example 1404]
30.6 nM | Cc1nn(Cc2ncccc2C#N)c(C)c1NC(=O)c1cc(C(N)=O)nc2cccc(F)c12 [Example 1410]
1.8 nM | Cc1c(NC(=O)c2cc(C(N)=O)nc3cc(F)c(Cl)cc23)c(C(F)(F)F)nn1Cc1ccccc1C#N [Example 270, 6-chloro-N^4-[1-(2-cyanobenzyl)-5-methyl-3-(trifluoromethyl)-1H-pyrazol-4-yl]-7-fluoroquinoline-2,4-dicarboxamide]
0.8 nM | Cc1nn(Cc2ccc(CC#N)cc2)c(C)c1NC(=O)c1cc(C(N)=O)nc2ccccc12 [Example 1614]
15.1 nM | Cc1c(NC(=O)c2cc(C(F)(F)F)nc3ccc(Br)cc23)c(C(F)(F)F)nn1Cc1ccc(C#N)cc1 [Example 161, 6-bromo-N-[1-(4-cyanobenzyl)-5-methyl-3-(trifluoromethyl)-1H-pyrazol-4-yl]-2-(trifluoromethyl)quinoline-4-carboxamide]
6.2 nM | Cc1ccccc1Cn1nc(C(F)(F)F)c(NC(=O)c2cc(C(N)=O)nc3cccc(F)c23)c1C [Example 1496]
24.6 nM | Cc1c(NC(=O)c2cc(C(N)=O)nc3cc(F)ccc23)c(C(F)(F)F)nn1Cc1cccc(C(N)=O)c1 [Example 1601]
2.3 nM | COc1cc(C#N)ccc1Cn1nc(C(F)(F)F)c(NC(=O)c2cc(C(N)=O)nc3cc(F)ccc23)c1C [Example 1646]
112 nM | Cc1c(NC(=O)c2cc(C(=O)N3CCOCC3)nc3ccc(F)cc23)c(C(F)(F)F)nn1Cc1ccc(C#N)cc1 [Example 1564]
1.3 nM | Cc1c(NC(=O)c2cc(C(N)=O)nc3ccccc23)c(C(F)(F)F)nn1Cc1ccc(CC#N)cc1 [Example 1592]
5.5 nM | Cc1nn(Cc2ccc(F)c(F)c2)c(C)c1NC(=O)c1cc(C(N)=O)nc2ccc(Br)cc12 [Example 1469]
1.4 nM | Cc1nn(Cc2ccc(C#N)cc2)c(C)c1NC(=O)c1cc(C(N)=O)nc2c(Cl)cccc12 [Example 255, 8-chloro-N^4-[1-(4-cyanobenzyl)-3,5-dimethyl-1H-pyrazol-4-yl]quinoline-2,4-dicarboxamide]
5 nM | Cc1nn(Cc2ccc(C#N)cc2)c(C)c1NC(=O)c1cc(C(N)=O)nc2cc(F)c(F)cc12 [Example 230, N^4-[1-(4-cyanobenzyl)-3,5-dimethyl-1H-pyrazol-4-yl]-6,7-difluoroquinoline-2,4-dicarboxamide]
132 nM | Cc1nn(Cc2ccc(C#N)cc2)c(C)c1NC(=O)c1cc(C(=O)NCCO)nc2cc(F)ccc12 [Example 1399]
16.2 nM | Cc1c(NC(=O)c2cc(C(N)=O)nc3cccc(F)c23)c(C(F)(F)F)nn1Cc1c(F)cccc1F [Example 1629]
0.6 nM | Cc1nn(Cc2ccc(C#N)cc2F)c(C)c1NC(=O)c1cc(C(N)=O)nc2cc(F)c(Cl)cc12 [Example 296, 6-chloro-N^4-[1-(4-cyano-2-fluorobenzyl)-3,5-dimethyl-1H-pyrazol-4-yl]-7-fluoroquinoline-2,4-dicarboxamide]
28.2 nM | Cc1nn(Cc2ncccc2C#N)c(C)c1NC(=O)c1cc(C(N)=O)nc2ccccc12 [Example 1082]
5.8 nM | Cc1c(NC(=O)c2cc(C(N)=O)nc3cc(F)c(Cl)cc23)c(C(F)(F)F)nn1Cc1cccc(C(N)=O)c1 [Example 1603]
128 nM | Cc1c(NC(=O)c2cc(C(N)=O)nc3cc(F)ccc23)c(C(F)(F)F)nn1Cc1cccc(C#N)n1 [Example 1687]
0.5 nM | Cc1nn(Cc2ccc(C#N)cc2)c(C)c1NC(=O)c1cc(C(N)=O)nc2cc(F)cc(F)c12 [Example 253, N^4-[1-(4-cyanobenzyl)-3,5-dimethyl-1H-pyrazol-4-yl]-5,7-difluoroquinoline-2,4-dicarboxamide]
12.4 nM | Cc1c(NC(=O)c2cc(C(N)=O)nc3cc(F)ccc23)c(C(F)(F)F)nn1Cc1ccc(C(N)=O)cc1 [Example 369, N^4-[1-(4-carbamoylbenzyl)-5-methyl-3-(trifluoromethyl)-1H-pyrazol-4-yl]-7-fluoroquinoline-2,4-dicarboxamide]
